Patent publication US7465725B2, “Pyrimidine compounds” (Synta Pharmaceuticals Corp., priority 2001, dated 2008)

How the values were obtained:
adjuvant arthritis = assay: Treatment of adjuvant arthritis in rats; assay type: in vivo, female Lewis rats; conditions: oral, once a day for 12 days, dose-dependent
[1] = tested on: DNBS-induced distal colitis; assay: Dinitrobenzene sulfonic acid-induced inflammatory bowel syndrome model rats; assay type: in vivo, Wistar derived rats; conditions: oral, 24 and 2 h before DNBS, then daily for 5 days; relative to vehicle+DNBS net increase
Protocol: Treatment of Crohn's disease in dinitrobenzene suifonic acid-induced inflammatory bowel syndrome model rats: Wistar derived male or female rats weighing 200±20 g and fasted for 24 hours were used. Distal colitis was induced by intra-colonic instillation of 2,4-dinitrobenzene sulfonic acid (DNBS, 25 mg in 0.5 mL ethanol 30%) after which air (2 mL) was gently injected through the cannula to ensure that the solution remained in the colon. A test compound and/or vehicle was administered orally 24 and 2 hours before DNBS instillation and then daily for 5 days. One control group was similarly treated with vehicle alone while the other is treated with vehicle plus DNBS. The animals were sacrificed 24 hours after the final dose of test compound administration and each colon was removed and weighed. Colon-to-body weight ratio was then calculated for each animal according to the formula: Colon (g)/BW×100. The “Net” increase in ratio of Vehicle-control+DNBS group relative to Vehicle-control group was used as a base for comparison with test substance treated groups and expressed as “% Deduction.” Pyriridine compounds of this invention (e.g., Compound 12) reproducibly had about 30% deduction. A 30% or more reduction in colon-to-body weight ratio, relative to the vehicle treated eontrol group, was considered significant.

[2] = tested on: CD4+ CD45Rbhigh T cell-reconstituted colitis; assay: CD4+ CD45Rbhigh T cell-reconstituted SCID colitis model mice; assay type: in vivo, C.B-17 SCID mice
Protocol: Treatment of Crohn's disease in CD4^+ CD45Rb^high T cell-reconstituted SCID colitis model mice: Spleen cells were prepared from normal female BALB/c mice. For cell purification, the following anti-mouse antibodies were used to label non-CD4^+ T cells: B220 (RA3-6B2), CD11b (M1/70), and CD8α (53-6.72). All antibodies were obtained from BioSource (Camarillo, Calif.). M450 anti-rat IgG-coated magnetic beads (Dynal, Oslo, Norway) were used to bind the antibodies and negative selection was accomplished using an MPC-1 magnetic concentrator. The enriched CD4^+ cells were then labeled for cell sorting with FITC-conjugated CD45RB (16A, Pharmingen, San Diego, Calif.) and PE-conjugated CD4 (CT-CD4, Caltag, Burlingame, Calif.). CD4^+ CD45Rb^high cells were operationally defined as the upper 40% of CD45Rb-staining CD4^+ cells and sorted under sterile conditions by flow cytometry. Harvested cells were resuspended at 4×10^6/mL in PBS and injected 100 μL intraperitoneally into female C.B-17 SCID mice. Pyrimidine compounds of this invention (e.g., Compound 12) and/or vehicle was orally administered once a day, 5 days per week, starting the day following the transfer. The transplanted SCID mice were weighed weekly and their clinical condition was monitored. Colon tissue samples were fixed in 10% buffered formalin and embedded in paraffin. Sections (4 μm) collected from ascending, transverse, and descending colon were cut and stained with hematoxylin and eosin. The severity of colitis was determined based on histological examination of the distal colon sections, whereby the extent of colonic inflammation was graded on a scale of 0-3 in each of four criteria: crypt elongation, cell infiltration, depletion of goblet cells, and the number of crypt abscesses. LP lymphocytes were isolated from freshly obtained colonic specimens. After removal of […] patches, the colon was washed in Ca/Mg-free HBSS, cut into 0.5 cm pieces and incubated twice in HBSS containing EDTA (0.75 mM), DTT (1 mM), and antibiotics (amphotericin 2.5 μg/mL, gentamicin 50 μg/mL from Sigma) at 37° C. for 15 min. Next, the tissue was-digested further in RPMI containing 0.5 mg/mL collagenase D, 0.01 mg/mL DNase I (Boehringer Manheim), and antibiotics at 37° C. LP cells were then layered on a 40-100% Percoll gradient (Pharmacia, Uppsala, Sweden), and lymphocyte-enriched populations were isolated from the cells at the 40-100% interface. To measure cytokine production, 48-well plates were coated with 10 μg/mL murine anti-CD3ε antibody (145-2C11) in carbonate buffer (PH 9.6) overnight at 4° C. […] Murine IFNγ was measured using an ELISA kit from Endogen (Cambridge, Mass.), according to the manufacturer's instructions.

## Cc1cccc(C=NNc2cc(N3CCOCC3)nc(OCCc3ccccn3)n2)c1 [Compound 12, N-(3-methyl-benzylidene)-N′-[6-morpholin-4-yl-2-(2-pyridin-2-yl-ethoxy)-pyrimidin-4-yl]-hydrazine]
Adjuvant arthritis
  development of polyarthritis: delayed the development of polyarthritis
Adjuvant arthritis; repeated four times
  arthritic score: reduced the arthritic score
[1]
  % Deduction (colon-to-body weight ratio): about 30%
[2]; ex vivo LP cells from treated mice, anti-CD3 and anti-CD28 antibody, 48 h, ELISA
  IFNγ production by LP cells: greatly diminished the production
[2]; oral, dose of 10 mg/kg
  colonic inflammation (histological analysis), suppressive effect: substantial reduction
[2]; oral, once a day, 5 days per week, versus vehicle control
  colonic inflammation (histological analysis): reduced colonic inflammation
[2]; oral, consistent with histological score
  colon-to-body weight ratio: attenuation
